Experimental data from US7476756B2, “Alkyl-, alkenyl- and alkynylcarbamate derivatives, their preparation and their application in therapeutics” (Sanofi-Aventis, priority 2005, dated 2009).

Tested on: not given
Assay: not given
Conditions: not given

Row | SMILES | melting point [°C]
1 | CCCCCCCCCCCCNC(=O)OCC(=O)NC [Compound 30, 2-(Methylamino)-2-oxoethyl (dodec-1-yl)carbamate] | 103 to 105
2 | C=CCCCCCCNC(=O)OCC(=O)NC [Compound 21, 2-(Methylamino)-2-oxoethyl (oct-7-en-1-yl)carbamate] | 72 to 74
3 | CNC(=O)COC(=O)NC1CCCCCCC1 [Compound 22, 2-(Methylamino)-2-oxoethyl (cyclooct-1-yl)carbamate] | 81 to 83
4 | CNC(=O)COC(=O)NC1CCCCCCCCCCC1 [Compound 29, 2-(Methylamino)-2-oxoethyl (cyclododec-1-yl)carbamate] | 171 to 173
5 | CCCC/C=C\CCNC(=O)OCC(=O)NC [Compound 16, 2-(Methylamino)-2-oxoethyl ((3Z)-oct-3-en-1-yl)carbamate] | 62 to 64
6 | C=CCCCCCCNC(=O)OCC(N)=O [Compound 20, 2-Amino-2-oxoethyl (oct-7-en-1-yl)carbamate] | 122 to 124
7 | CCCCCCNC(=O)OCC(=O)NC [Compound 10, 2-(Methylamino)-2-oxoethyl (hex-1-yl)carbamate] | 86 to 88
8 | CC/C=C\CCNC(=O)OCC(=O)NC [Compound 7, 2-(Methylamino)-2-oxoethyl ((3Z)-hex-3-en-1-yl)carbamate] | 72 to 74
9 | CC/C=C/CCNC(=O)OCC(N)=O [Compound 6, 2-Amino-2-oxoethyl ((3E)-hex-3-en-1-yl)carbamate] | 138 to 140
10 | CCCCCCCCCNC(=O)OCC(=O)NC [Compound 25, 2-(Methylamino)-2-oxoethyl (non-1-yl)carbamate] | 95 to 97
11 | CCCCCCCNC(=O)OCC(=O)NC [Compound 13, 2-(Methylamino)-2-oxoethyl (hept-1-yl)carbamate] | 87 to 89
12 | CCCCCCCCCCNC(=O)OCC(=O)NC [Compound 26, 2-(Methylamino)-2-oxoethyl decylcarbamate] | 98 to 100
13 | CCC/C=C/CNC(=O)OCC(N)=O [Compound 3, 2-Amino-2-oxoethyl ((2E)-hex-2-en-1-yl)carbamate] | 126 to 128
14 | CCCCCNC(=O)OC(C)C(N)=O (stereo not drawn) [Compound 1, 2-Amino-1-methyl-2-oxoethyl (pent-1-yl)carbamate] | 132 to 134
15 | CCCCC/C=C/CNC(=O)OCC(=O)NC [Compound 14, 2-(Methylamino)-2-oxoethyl ((2E)-oct-2-en-1-yl)carbamate] | 80 to 82
16 | CCCCCCCCCC(C)NC(=O)OCC(=O)NC (stereo not drawn) [Compound 28, 2-(Methylamino)-2-oxoethyl (1-methyldec-1-yl)carbamate] | 71 to 73
17 | CCCC/C=C\CCNC(=O)OCC(N)=O [Compound 17, 2-Amino-2-oxoethyl ((3Z)-oct-3-en-1-yl)carbamate] | 113 to 115
18 | CC/C=C\CCCCCCCCCCNC(=O)OCC(N)=O [Compound 31, 2-amino-2-oxoethyl ((11Z)-tetradec-11-en-1-yl)carbamate] | 120 to 123
19 | CC/C=C\CCCCNC(=O)OCC(N)=O [Compound 18, 2-Amino-2-oxoethyl ((5Z)-oct-5-en-1-yl)carbamate] | 122 to 124
20 | CC/C=C/CCNC(=O)OCC(=O)NC [Compound 8, 2-(Methylamino)-2-oxoethyl ((3E)-hex-3-en-1-yl)carbamate] | 88 to 90
21 | CCC/C=C\CNC(=O)OCC(N)=O [Compound 4, 2-Amino-2-oxoethyl ((2Z)-hex-2-en-1-yl)carbamate] | 102 to 104
22 | CCCCC/C=C/CNC(=O)OCC(N)=O [Compound 15, 2-Amino-2-oxoethyl ((2E)-oct-2-en-1-yl)carbamate] | 126 to 128
23 | CCCCCCCCCCNC(=O)OC(C)C(N)=O (stereo not drawn) [Compound 27, 2-Amino-1-methyl-2-oxoethyl (dec-1-yl)carbamate] | 133 to 135
24 | CCC/C=C/CNC(=O)OCC(=O)NC [Compound 2, 2-(Methylamino)-2-oxoethyl ((2E)-hex-2-en-1-yl)carbamate] | 85 to 87
25 | CCCCCCNC(=O)OC(C)C(N)=O (stereo not drawn) [Compound 11, 2-Amino-1-methyl-2-oxoethyl (hex-1-yl)carbamate] | 123 to 125
26 | CC/C=C\CCCCNC(=O)OCC(=O)NC [Compound 19, 2-(Methylamino)-2-oxoethyl ((5Z)-oct-5-en-1-yl)carbamate] | 69 to 71
27 | CCC/C=C\CNC(=O)OCC(=O)NC [Compound 9, 2-(Methylamino)-2-oxoethyl ((2Z)-hex-2-en-1-yl)carbamate] | 74 to 76
28 | CCCCCCCCNC(=O)OC(C)C(N)=O (stereo not drawn) [Compound 23, 2-Amino-1-methyl-2-oxoethyl (oct-1-yl)carbamate] | 130 to 132

Continued, values first:

Row | melting point [°C] | SMILES
29 | 106 to 108 | CCCCCCCCCCCCCCNC(=O)OCC(=O)NC [Compound 33, 2-(Methylamino)-2-oxoethyl (tetradec-1-yl)carbamate]
30 | 69 to 71 | CCCCCC/C=C\CCCCCCCCNC(=O)OCC(=O)NC [Compound 35, 2-(Methylamino)-2-oxoethyl ((9Z)-hexadec-9-en-1-yl)carbamate]
31 | 107 to 109 | CCCCCCCCCCCCCCCNC(=O)OCC(=O)NC [Compound 37, 2-(Methylamino)-2-oxoethyl (pentadec-1-yl)carbamate]
32 | 79 to 81 | CC/C=C\CCCCCCCCCCNC(=O)OCC(=O)NC [Compound 32, 2-(Methylamino)-2-oxoethyl ((11Z)-tetradec-11-en-1-yl)carbamate]
33 | 77 to 79 | CCCCCCCC/C=C/CCCCCCCCCCNC(=O)OCC(=O)NC [Compound 47, 2-(Methylamino)-2-oxoethyl ((11E)-icosa-11-en-1-yl)carbamate]
34 | 127 to 129 | CCCCCC/C=C\CCCCCCCCNC(=O)OCC(N)=O [Compound 34, 2-Amino-2-oxoethyl ((9Z)-hexadec-9-en-1-yl)carbamate]
35 | 72 to 74 | CCCCCCCCCCC/C=C\CCCCCNC(=O)OCC(=O)NC [Compound 40, 2-(Methylamino)-2-oxoethyl ((6Z)-octadec-6-en-1-yl)carbamate]
36 | 100 to 102 | CCCCCCCCCCC/C=C\CCCCCNC(=O)OCC(N)=O [Compound 39, 2-Amino-2-oxoethyl ((6Z)-octadec-6-en-1-yl)carbamate]
37 | 58 to 60 | CCCCC/C=C/C/C=C/CCCCCCCCCCNC(=O)OCC(=O)NC [Compound 46, 2-(Methylamino)-2-oxoethyl ((11E,14E)-icosa-11,14-dien-1-yl)carbamate]
38 | 82 to 84 | CCCCCCCCCCCCC(C)NC(=O)OCC(=O)NC (stereo not drawn) [Compound 36, 2-(Methylamino)-2-oxoethyl (1-methyltridecyl)carbamate]
39 | 85 to 87 | CCCCCCCCCCCCCCCCCCCNC(=O)OCC(=O)NC [Compound 41, 2-(Methylamino)-2-oxoethyl ((methyl)octadec-1-yl)carbamate]
40 | 113 to 115 | CCCCCCCCCCCCCCCCCCCNC(=O)OCC(=O)NC [Compound 43, 2-(Methylamino)-2-oxoethyl (nonadec-1-yl)carbamate]
41 | 57 to 59 | CC/C=C/C/C=C/C/C=C/CCCCCCCCCCNC(=O)OCC(=O)NC [Compound 45, 2-(Methylamino)-2-oxoethyl ((11E,14E,17E)-icosa-11,14,17-trien-1-yl)carbamate]

Target: T1, enzyme FAAH (Fatty Acid Amido Hydrolase) (Mus musculus, UniProt O08914)
T1 construct: The membrane homogenates are prepared at the time of use by homogenization of the tissues with a Polytron; from tissue; host or cells: mouse brain (minus the cerebellum), membrane homogenate
T1 sequence (O08914 1-579): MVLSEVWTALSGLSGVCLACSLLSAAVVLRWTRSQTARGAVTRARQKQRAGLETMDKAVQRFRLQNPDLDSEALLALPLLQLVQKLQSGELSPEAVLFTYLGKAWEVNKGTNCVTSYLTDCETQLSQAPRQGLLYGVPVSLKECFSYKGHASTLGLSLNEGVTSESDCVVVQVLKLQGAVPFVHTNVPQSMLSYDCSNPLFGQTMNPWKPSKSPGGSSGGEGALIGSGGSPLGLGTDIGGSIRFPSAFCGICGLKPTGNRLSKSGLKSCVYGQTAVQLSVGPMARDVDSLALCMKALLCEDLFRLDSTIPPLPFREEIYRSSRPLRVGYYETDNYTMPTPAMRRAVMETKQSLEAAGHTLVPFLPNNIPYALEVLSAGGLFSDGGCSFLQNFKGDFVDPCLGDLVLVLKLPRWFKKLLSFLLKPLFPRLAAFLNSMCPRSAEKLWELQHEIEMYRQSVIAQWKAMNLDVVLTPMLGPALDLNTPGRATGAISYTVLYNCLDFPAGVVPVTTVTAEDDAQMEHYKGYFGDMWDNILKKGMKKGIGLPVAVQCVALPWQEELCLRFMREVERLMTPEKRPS
Assay: radioenzymatic test of FAAH inhibition (hydrolysis of ((1-3H)ethanolamine)-anandamide, mouse brain membrane homogenates)
Format: biochemical
Conditions: mouse brain membrane homogenate; 10 μM anandamide; 15 minutes at 25° C.; read-out: IC50 (concentration which inhibits the control enzymatic activity of FAAH by 50%)
Procedure: The compounds of the invention have formed the subject of pharmacological trials which make it possible to determine their inhibitory effect on the enzyme FAAH (Fatty Acid Amido Hydrolase).
Thus, mouse brains (minus the cerebellum) are removed and stored at −80° C. The membrane homogenates are prepared at the time of use by homogenization of the tissues with a Polytron in a 10 mM Tris-HCl buffer (pH 8) comprising 150 mM NaCl and 1 mM EDTA. The enzymatic reaction is subsequently carried out in 70 μl of buffer comprising bovine serum albumin free from fatty acids (1 mg/ml). The test compounds, at various concentrations, the ((1-^3H)ethanolamine)-anandamide (specific activity of 15-20 Ci/mmol), diluted to 10 μM with non-radiolabelled anandamide, and the membrane preparation (400 μg of frozen tissue per assay) are successively added. After 15 minutes at 25° C., the enzymatic reaction is halted by addition of 140 μl of chloroform/methanol (2:1). The mixture is stirred for 10 minutes and is then centrifuged at 3500 g for 15 minutes. An aliquot (30 μl) of the aqueous phase comprising the (1-^3H)ethanolamine is counted by liquid scintillation.

Row | SMILES | IC50 [µM]
42 | CNC(=O)COC(=O)NC1CCCCCCC1 [Compound 22, 2-(Methylamino)-2-oxoethyl (cyclooct-1-yl)carbamate] | 0.696
43 | CCCCCCC(C)NC(=O)OCC(=O)NC (stereo not drawn) [Compound 24, 2-(Methylamino)-2-oxoethyl (1-methylhept-1-yl)carbamate] | 0.089
44 | CCCCCCCNC(=O)OCC(=O)NC [Compound 13, 2-(Methylamino)-2-oxoethyl (hept-1-yl)carbamate] | 0.091
45 | CCCCCCCC/C=C/CCCCCCCCCCNC(=O)OCC(=O)NC [Compound 47, 2-(Methylamino)-2-oxoethyl ((11E)-icosa-11-en-1-yl)carbamate] | 0.154
